{"source": "patent US10555936B2", "about": "“Chemotherapeutic compositions and methods for treating human gliomas” (The Methodist Hospital, priority 2011, dated 2020)", "key": {"hMAO-A": {"molecular_target": "T1, hMAO-A (Homo sapiens, UniProt P21397)", "T1 sequence (P21397 1-527)": "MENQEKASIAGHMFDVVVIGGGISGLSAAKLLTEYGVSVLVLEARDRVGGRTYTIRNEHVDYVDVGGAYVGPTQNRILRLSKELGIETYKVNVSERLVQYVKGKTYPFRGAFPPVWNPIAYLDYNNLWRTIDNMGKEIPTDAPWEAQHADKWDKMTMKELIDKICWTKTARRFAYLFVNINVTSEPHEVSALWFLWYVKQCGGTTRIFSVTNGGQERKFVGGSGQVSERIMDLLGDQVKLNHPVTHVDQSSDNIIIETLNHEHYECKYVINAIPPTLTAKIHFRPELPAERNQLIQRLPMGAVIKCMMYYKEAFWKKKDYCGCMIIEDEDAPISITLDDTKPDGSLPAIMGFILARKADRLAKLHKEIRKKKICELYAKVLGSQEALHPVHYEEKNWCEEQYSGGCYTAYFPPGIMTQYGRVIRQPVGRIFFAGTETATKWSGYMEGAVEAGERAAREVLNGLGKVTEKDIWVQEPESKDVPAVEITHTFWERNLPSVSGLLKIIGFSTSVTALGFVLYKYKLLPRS", "settings": "Fierro and co-workers; cited from earlier work"}, "BT-115 [1]": {"system": "BT-115", "experiment": "Total cell protein mass, BCA/SDS method", "type": "cell-based, human", "settings": "BT-115, with 2 μM selegiline, 24 hr"}, "BT-115 [2]": {"system": "BT-115", "experiment": "Cell death, Hoechst viability stain", "type": "cell-based, human", "settings": "BT-115, high concentrations, 2 μM selegiline, 24 hrs"}, "BT-111 [3]": {"system": "BT-111", "experiment": "Cell death, Hoechst viability stain", "type": "cell-based, human", "settings": "BT-111, high concentrations, 2 μM selegiline, 24 hrs"}, "BT-111 [4]": {"system": "BT-111", "experiment": "Total cell protein mass, BCA/SDS method", "type": "cell-based, human", "settings": "BT-111, with 2 μM selegiline, 24 hr"}, "MAO-B": {"system": "MAO-B", "settings": "previously-published work; cited from earlier work"}, "BT-111 cells": {"system": "BT-111 cells", "type": "cell-based, human"}}}
{"compound": "CSc1ccc(CC(C)N)cc1", "note": "(centres unmarked) [MTA]", "values": [{"measurement": "times better at inhibiting hMAO-A than hMAO-B", "setting": "hMAO-A", "result": "> 1000", "unit": "times"}]}
{"compound": "CCc1c2c(nc3ccc(OCCCN)cc13)-c1cc3c(c(=O)n1C2)COC(=O)[C@]3(O)CC", "note": "[APE-SN38, 7-ethyl-10-(3-aminprop)-oxy-camptothecine]", "values": [{"measurement": "protection by selegiline", "setting": "BT-115 [1]", "result": "almost complete protection"}, {"measurement": "cell death on co-incubation with selegiline", "setting": "BT-115 [2]", "result": "could be arrested"}, {"measurement": "cell death on co-incubation with selegiline", "setting": "BT-111 [3]", "result": "could be arrested"}, {"measurement": "protection by selegiline", "setting": "BT-111 [4]", "result": "almost complete protection"}]}
{"compound": "1-methyl-4-(3-methylfuran-yl)-1,2,3,6-tetrahydropyridine", "values": [{"measurement": "MAO-B substrate quality", "setting": "MAO-B", "result": "excellent MAO-B substrates"}]}
{"compound": "CN1CC=C(C2CCCCC2)CC1", "note": "[4-cyclohexyl-1-methyl-1,2,3,6-tetrahydropyridine]", "values": [{"measurement": "MAO-B substrate quality", "setting": "MAO-B", "result": "excellent MAO-B substrates"}]}
{"compound": "C#CCN(C)[C@H](C)Cc1ccccc1", "note": "[Selegiline]", "values": [{"measurement": "effect on mitochondrial membrane potential", "setting": "BT-111 cells", "result": "no effect"}]}
